Measured values taken from PMC6887723, “Design and Synthesis of 4-(Heterocyclic Substituted Amino)-1H-Pyrazole-3-Carboxamide Derivatives and Their Potent Activity against Acute Myeloid Leukemia (AML)” (International Journal of Molecular Sciences, 2019).

Experiments:
[1] = test system: human cell lines of NCI60; assay: NCI60 screening, overall; format: cell-based; conditions: for most cell lines
Excerpt: (§1) With these findings, we submitted compound 8t to National Cancer Institute (NCI) to evaluate their antitumor efficacy against 60 human cancer cell lines.

[2] = test system: BaF3 (FLT3 (ITD-F691L)); assay: Antiproliferative activity in BaF3 cells transformed with FLT3-ITD-F691L; format: cell-based; conditions: Mus musculus, Table S2
[3] = test system: phosphorylation of STAT5/AKT/ERK; assay: Western blot, phosphorylation of STAT5/AKT/ERK in MV4-11 cells; format: cell-based, human; conditions: MV4-11, 4 h, 1 μM
Method: (§2) Analysis of pFLT3, pSTAT5, pERK, pAKT, and pRb in vitro: to determine the levels of pFLT3, pSTAT5, pERK, pAKT, and pRb, cells were seeded in a 6-well cell culture plate at a density of 400,000 cells per well for MV4-11 in a total volume of 1800 μL and incubated overnight in medium containing 10% fetal bovine serum (Life Technologies, Rockville, MD, USA). Then 200 μL of serially diluted compounds were added to each well the next day. Cell lysates were harvested after 4 h and pFLT3, pSTAT5, pERK, pAKT, or pRb were quantified using assay kits for FLT3/Phospho-FLT3Tyr589/591, pSTAT5 (Tyr694)/total STAT5, pRb (Ser807)/total Rb (Nanjin keyGen Biotech Company, Nanjing, China) following the manufacturer’s protocols.

[4] = test system: KM12; assay: NCI60 screening; format: cell-based; conditions: Homo sapiens, Colon Cancer panel
Excerpt: as §1

[5] = test system: HCT-116; assay: NCI60 screening; format: cell-based; conditions: Homo sapiens, Colon Cancer panel
Excerpt: as §1

[6] = test system: NCI/ADR-RES; assay: NCI60 screening; format: cell-based; conditions: Homo sapiens, Ovarian Cancer panel
Excerpt: as §1

[7] = test system: U251; assay: NCI60 screening; format: cell-based; conditions: Homo sapiens, U-251; CNS Cancer panel
Excerpt: as §1

[8] = test system: T-47D; assay: NCI60 screening; format: cell-based; conditions: Homo sapiens, T47D; Breast Cancer panel
Excerpt: as §1

[9] = test system: A498; assay: NCI60 screening; format: cell-based; conditions: Homo sapiens, Renal Cancer panel
Excerpt: as §1

[10] = test system: HT29; assay: NCI60 screening; format: cell-based; conditions: Homo sapiens, HT-29; Colon Cancer panel
Excerpt: as §1

[11] = test system: PC-3; assay: NCI60 screening; format: cell-based; conditions: Homo sapiens, Prostate Cancer panel
Excerpt: as §1

[12] = test system: OVCAR-8; assay: NCI60 screening; format: cell-based; conditions: Homo sapiens, Ovarian Cancer panel
Excerpt: as §1

[13] = test system: NCI-H226; assay: NCI60 screening; format: cell-based; conditions: Homo sapiens, Non-Small Cell Lung Cancer panel
Excerpt: as §1

[14] = test system: ACHN; assay: NCI60 screening; format: cell-based; conditions: Homo sapiens, Renal Cancer panel
Excerpt: as §1

[15] = test system: MALME-3M; assay: NCI60 screening; format: cell-based; conditions: Homo sapiens, Melanoma panel
Excerpt: as §1

[16] = test system: SN12C; assay: NCI60 screening; format: cell-based; conditions: Homo sapiens, Renal Cancer panel
Excerpt: as §1

[17] = test system: DU-145; assay: NCI60 screening; format: cell-based; conditions: Homo sapiens, Prostate Cancer panel
Excerpt: as §1

[18] = test system: HL-60(TB); assay: NCI60 screening; format: cell-based; conditions: Homo sapiens, Leukemia panel
Excerpt: as §1

[19] = test system: NCI-H460; assay: NCI60 screening; format: cell-based; conditions: Homo sapiens, Non-Small Cell Lung Cancer panel
Excerpt: as §1

[20] = test system: NCI-H322M; assay: NCI60 screening; format: cell-based; conditions: Homo sapiens, Non-Small Cell Lung Cancer panel
Excerpt: as §1

[21] = test system: M14; assay: NCI60 screening; format: cell-based; conditions: Homo sapiens, Melanoma panel
Excerpt: as §1

[22] = test system: HOP-92; assay: NCI60 screening; format: cell-based; conditions: Homo sapiens, Non-Small Cell Lung Cancer panel
Excerpt: as §1

[23] = test system: RXF 393; assay: NCI60 screening; format: cell-based; conditions: Homo sapiens, Renal Cancer panel
Excerpt: as §1

[24] = test system: TK-10; assay: NCI60 screening; format: cell-based; conditions: Homo sapiens, Renal Cancer panel
Excerpt: as §1

[25] = test system: UACC-257; assay: NCI60 screening; format: cell-based; conditions: Homo sapiens, Melanoma panel
Excerpt: as §1

[26] = test system: LOX IMVI; assay: NCI60 screening; format: cell-based; conditions: Homo sapiens, Melanoma panel
Excerpt: as §1

[27] = test system: phosphorylation of the FLT3; assay: Western blot, phosphorylation of FLT3 in MV4-11 cells; format: cell-based, human; conditions: MV4-11, 4 h, 1 μM; dose-dependent, more potent than sorafenib
Method: as §2

[28] = molecular target: T1, CDK2 (Homo sapiens, UniProt P24941); assay: CDK2 kinase activity assay (Hot-Spot); format: biochemical; conditions: 10 μM ATP; mean ± SD, three independent experiments
T1 construct: purchased Reaction Biology Corp
Method: (§3) Activities of kinases were determined using Hot-SpotSM kinase assay which was performed by Reaction Biology Corp. (Malvern PA, USA) as described previously.

[29] = molecular target: FLT3 (ITD)-F691L (Homo sapiens, UniProt P36888, F691L/ITD); assay: Hot-Spot kinase profiling; format: biochemical; conditions: Table 5 kinase profiling
Method: as §3

[30] = molecular target: T2, FLT3 (D835Y) (Homo sapiens, UniProt P36888, D835Y); assay: Hot-Spot kinase profiling; format: biochemical
T2 construct: purchased Reaction Biology Corp
Method: as §3

[31] = molecular target: T3, CDK3/cyclin E (Homo sapiens, UniProt Q00526); assay: Hot-Spot kinase profiling; format: biochemical
T3 construct: purchased Reaction Biology Corp
T3 sequence (Q00526 whole entry): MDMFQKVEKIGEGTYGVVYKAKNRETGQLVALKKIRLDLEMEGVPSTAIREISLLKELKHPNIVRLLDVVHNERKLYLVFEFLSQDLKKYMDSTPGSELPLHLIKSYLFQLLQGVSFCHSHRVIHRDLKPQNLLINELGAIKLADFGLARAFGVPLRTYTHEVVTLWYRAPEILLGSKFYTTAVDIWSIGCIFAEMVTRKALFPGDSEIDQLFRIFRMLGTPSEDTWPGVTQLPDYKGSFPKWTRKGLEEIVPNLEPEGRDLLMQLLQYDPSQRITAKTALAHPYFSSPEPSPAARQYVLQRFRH
T3 sequence (P24864 whole entry partner): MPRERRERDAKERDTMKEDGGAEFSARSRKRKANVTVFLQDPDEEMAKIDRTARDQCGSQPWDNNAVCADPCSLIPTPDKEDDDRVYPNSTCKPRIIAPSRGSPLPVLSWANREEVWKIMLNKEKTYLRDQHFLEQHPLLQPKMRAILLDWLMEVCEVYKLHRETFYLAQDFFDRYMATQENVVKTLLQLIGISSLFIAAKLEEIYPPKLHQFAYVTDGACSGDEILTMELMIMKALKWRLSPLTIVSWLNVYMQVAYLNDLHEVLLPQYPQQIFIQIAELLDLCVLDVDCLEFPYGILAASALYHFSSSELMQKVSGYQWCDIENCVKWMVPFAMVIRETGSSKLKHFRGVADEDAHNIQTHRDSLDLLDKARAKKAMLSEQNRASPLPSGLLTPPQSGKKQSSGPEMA
Method: as §3

[32] = test system: MV4-11; assay: Cell growth inhibition assay (CellTiter-Glo); format: cell-based; conditions: Homo sapiens, 72 h, highest test concentration 1 μM, mean ± SD, three independent experiments
Method: The human AML cell line MV4-11 was purchased from the American Type Culture Collection (ATCC) (Manassas, VA, USA). MV4-11 was cultured in IMDM media (Corning, Crown Bioscience Inc., Taicang, China) with 10% FBS and supplemented with 2% L-glutamine and 1% pen/strep. The MV4-11 cell line was maintained in culture media at 37 °C with 5% CO2. The effects of target compounds on MV4-11 proliferation was performed by Crown Bioscience Inc. Cells were grown in 96-well culture plates (10,000/well). The compounds of various concentrations were added into the plates. Cell proliferation was determined after treatment with compounds for 72 h. Cell viability was measured using the CellTiter-Glo assay (Promega, Crown Bioscience Inc., Taicang, China) according to the manufacturer’s instructions, and luminescence was measured in a multilabel reader (Envision2014, PerkinElmer, Crown Bioscience Inc., Taicang, China). Data were normalized to the control group (DMSO) and represented by the mean of three independent measurements with standard error of <20%. IC50 values were calculated using Prism 5.0 (GraphPad Software, San Diego, CA, USA).

## O=C(Nc1ccc(N2CCNCC2)cc1)c1n[nH]cc1Nc1ncnc2sc3c(c12)CCC3 [Compound 8t]
[1]
  GI50: < 1000 nM
[2]
  IC50: 21.9 nM
[3]
  phosphorylation of STAT5/AKT/ERK: completely blocked
[4]
  GI50: 170 nM
[5]
  GI50: 110 nM
[6]
  GI50: 1480 nM
[7]
  GI50: 110 nM
[8]
  GI50: 590 nM
[9]
  GI50: 140 nM
[10]
  GI50: 260 nM
[11]
  GI50: 180 nM
[12]
  GI50: 360 nM
[13]
  GI50: 320 nM
[14]
  GI50: 160 nM
[15]
  GI50: 240 nM
[16]
  GI50: 450 nM
[17]
  GI50: 300 nM
[18]
  GI50: 1150 nM
[19]
  GI50: 60 nM
[20]
  GI50: 140 nM
[21]
  GI50: 120 nM
[22]
  GI50: 40 nM
[23]
  GI50: 390 nM
[24]
  GI50: 470 nM
[25]
  GI50: 480 nM
[26]
  GI50: 200 nM
[27]
  phosphorylation of the FLT3: eliminated
[28]
  IC50: 0.719 ± 0.064 nM
[29]
  IC50: 0.6 ± 0.01 nM
[30]; 0.15 μM, read-out: % Enzyme Activity (Relative to DMSO Controls) FLT3 (D835Y)
  remaining activity at 0.15 µM: 0.27%
[30]; Table 5 kinase profiling
  IC50: 0.75 ± 0.04 nM
[31]; 0.15 μM, read-out: % Enzyme Activity (Relative to DMSO Controls) CDK3/cyclin E
  remaining activity at 0.15 µM: 5.94%
[31]; Table 5 kinase profiling
  IC50: 6.88 ± 0.25 nM
[32]
  IC50: 1.22 ± 0.06 nM
